System: Lone star tick larvae (Amblyomma americanum)
Experiment: In Vitro Larval Immersion Microassay (LIM)
Conditions: read-out: % Efficacy (percent larval mortality)
Experimental: In Vitro Larval Immersion Microassay (LIM)
The larval immersion microassay may be conducted as described in White, et al., J. Med. Entomol. […] Briefly, experimental test articles are formulated in dimethylsulfoxide (DMSO) to prepare a stock solution at a concentration of 10 mM. […] Approximately 30-50 Lone star tick larvae (Amblyomma americanum) are submerged into each well containing experimental test articles. After a 30 minute immersion period, larvae are removed with a wide-bore pipette tip in 0.05 ml of fluid, dispensed into a commercial paper tissue biopsy bag which is sealed at the top with a plastic dialysis clip, inverted and allowed to air dry for 60 minutes. Bags containing larvae are then incubated at approximately 27 degrees Celsius and >90% relative humidity. After 24 hours, bags are opened, live and dead larvae are counted and percent larval mortality is calculated as follows: % Efficacy=(# dead larvae)/(# total larvae)×100.

SMILES | mortality at 300 µM [%]
O=C(NC1CSC1)c1sc(C2=NOC(c3cc(Cl)cc(Cl)c3)(C(F)(F)F)C2)c2c1CCCC2 (stereo not drawn) [Example 70, 3-(5-(3,5-dichloro-phenyl)-5-(trifluoro-methyl)-4,5-dihydro-isoxazol-3-yl)-N-(thietan-3-yl)-4,5,6,7-tetrahydrobenzo[c] thiophene-1-carboxamide] | ≥ 80
O=C(N[C@@H]1CCNC1=O)c1sc(C2=NOC(c3cc(Cl)c(Cl)c(Cl)c3)(C(F)(F)F)C2)c2c1CCC2 (stereo partly drawn) [Example 53, N-((R)-2-oxopyrrolidin-3-yl)-3-(5-(3,4,5-trichlorophenyl)-5-(trifluoromethyl)-4,5-dihydroisoxazol-3-yl)-5,6-dihydro-4H-cyclopenta[c] thiophene-1-carboxamide] | ≥ 80
O=C(NC1CS(=O)(=O)C1)c1sc(C2=NOC(c3cc(Cl)c(F)c(Cl)c3)(C(F)(F)F)C2)c2c1CCCC2 (stereo not drawn) [Example 79, 3-[5-(3,5-Dichloro-4-fluoro-phenyl)-5-trifluoromethyl-4,5-dihydro-isoxazol-3-yl]-4,5,6,7-tetrahydro-benzo[c]thiophene-1-carboxylic acid (1,1-dioxo-thietan-3-yl)-amide] | ≥ 80
O=C(NC1CCN(CC(F)(F)F)C1=O)c1sc(C2=NOC(c3cc(Cl)c(Cl)c(Cl)c3)(C(F)(F)F)C2)c2c1CCCC2 (stereo not drawn) [Example 76, N-(2-oxo-1-(2,2,2-trifluoroethyl)pyrrolidin-3-yl)-3-(5-(3,4,5-trichloro-phenyl)-5-(trifluoro-methyl)-4,5-dihydro-isoxazol-3-yl)-4,5,6,7-tetrahydro-benzo[c]thiophene-1-carboxamide] | ≥ 80
N#CCNC(=O)CNC(=O)c1sc(C2=NOC(c3cc(Cl)cc(Cl)c3)(C(F)(F)F)C2)c2c1CCCC2 (stereo not drawn) [Example 94, N-(2-(cyanomethylamino)-2-oxoethyl)-3-(5-(3,5-dichlorophenyl)-5-(trifluoromethyl)-4,5-dihydroisoxazol-3-yl)-4,5,6,7-tetrahydrobenzo[c]thiophene-1-carboxamide] | ≥ 80
O=C(N[C@@H]1CCNC1=O)c1sc(C2=NOC(c3cc(Cl)c(F)c(Cl)c3)(C(F)(F)F)C2)c2c1CCCC2 (stereo partly drawn) [Example 49, 3-(5-(3,5-dichloro-4-fluorophenyl)-5-(trifluoromethyl)-4,5-dihydroisoxazol-3-yl)-N-((R)-2-oxopyrrolidin-3-yl)-4,5,6,7-tetrahydro-benzo[c]thiophene-1-carboxamide] | ≥ 80
O=C(CNC(=O)c1sc(C2=NO[C@@](c3cc(Cl)c(F)c(Cl)c3)(C(F)(F)F)C2)c2c1CCC2)NCCF [Example 247, (S)-3-[5-(3,5-Dichloro-4-fluoro-phenyl)-5-trifluoromethyl-4,5-dihydro-isoxazol-3-yl]-5,6-dihydro-4H-cyclopenta[c]thiophene-1-carboxylic acid [(2-fluoro-ethylcarbamoyl)-methyl]-amide] | ≥ 80
C#CCNC(=O)CNC(=O)c1sc(C2=NOC(c3cc(Cl)c(F)c(Cl)c3)(C(F)(F)F)C2)c2c1CCCC2 (stereo not drawn) [Example 51, 3-(5-(3,5-dichloro-4-fluorophenyl)-5-(trifluoromethyl)-4,5-dihydroisoxazol-3-yl)-N-(2-oxo-2-(prop-2-ynylamino)ethyl)-4,5,6,7-tetrahydro-benzo[c]thiophene-1-carboxamide] | ≥ 80
O=C(NC1CS(=O)(=O)C1)c1sc(C2=NOC(c3cc(Cl)cc(Cl)c3)(C(F)(F)F)C2)c2c1CCCC2 (stereo not drawn) [Example 37, 3-[5-(3,5-Dichloro-phenyl)-5-trifluoro-methyl-4,5-dihydro-isoxazol-3-yl]-4,5,6,7-tetrahydro-benzo[c] thiophene-1-carboxylic acid (1,1-dioxo-thietan-3-yl)-amide] | ≥ 80
O=C(NC1CCN(C2CC2)C1=O)c1sc(C2=NOC(c3cc(Cl)cc(Cl)c3)(C(F)(F)F)C2)c2c1CCCC2 (stereo not drawn) [Example 72] | ≥ 80
C#CCNC(=O)CNC(=O)c1sc(C2=NOC(c3cc(Cl)cc(Cl)c3)(C(F)(F)F)C2)c2c1CCC2 (stereo not drawn) [Example 43, 3-(5-(3,5-dichloro-phenyl)-5-(trifluoro-methyl)-4,5-dihydro-isoxazol-3-yl)-N-(2-oxo-2-(prop-2-ynylamino)ethyl)-5,6-dihydro-4H-cyclopenta[c] thiophene-1-carboxamide] | ≥ 80
O=C(N[C@@H]1CCNC1=O)c1sc(C2=NOC(c3cc(Cl)c(Cl)c(Cl)c3)(C(F)(F)F)C2)c2c1CCCC2 (stereo partly drawn) [Example 45, N-((R)-2-oxopyrrolidin-3-yl)-3-(5-(3,4,5-trichlorophenyl)-5-(trifluoromethyl)-4,5-dihydroisoxazol-3-yl)-4,5,6,7-tetrahydrobenzo [c]thiophene-1-carboxamide] | ≥ 80
O=C(NCC1CCCO1)c1sc(C2=NOC(c3cc(Cl)cc(Cl)c3)(C(F)(F)F)C2)c2c1CCCC2 (stereo not drawn) [Example 64, 3-(5-(3,5-dichloro-phenyl)-5-(trifluoro-methyl)-4,5-dihydro-isoxazol-3-yl)-N-((tetrahydrofuran-2-yl)methyl)-4,5,6,7-tetrahydro-benzo[c]thiophene-1-carboxamide] | ≥ 80
O=C(CNC(=O)c1sc(C2=NOC(c3cc(Cl)c(Cl)c(Cl)c3)(C(F)(F)F)C2)c2c1CCC2)NCC(F)(F)F (stereo not drawn) [Example 52, N-(2-oxo-2-(2,2,2-trifluoroethylamino)ethyl)-3-(5-(3,4,5-trichlorophenyl)-5-(trifluoromethyl)-4,5-dihydroisoxazol-3-yl)-5,6-dihydro-4H-cyclopenta[c] thiophene-1-carboxamide] | ≥ 80
O=C(CNC(=O)c1sc(C2=NOC(c3cc(Cl)c(F)c(Cl)c3)(C(F)(F)F)C2)c2c1CCC2)NCC(F)(F)F (stereo not drawn) [Example 57, 3-(5-(3,5-dichloro-4-fluorophenyl)-5-(trifluoromethyl)-4,5-dihydroisoxazol-3-yl)-N-(2-oxo-2-(2,2,2-trifluoroethylamino)ethyl)-5,6-dihydro-4H-cyclopenta[c] thiophene-1-carboxamide] | ≥ 80
O=C(CNC(=O)c1sc(C2=NO[C@@](c3cc(Cl)c(F)c(Cl)c3)(C(F)(F)F)C2)c2c1CCC2)NCC(F)F [Example 245, (S)-3-[5-(3,5-dichloro-4-fluoro-phenyl)-5-trifluoromethyl-4,5-dihydro-isoxazol-3-yl]-5,6-dihydro-4H-cyclopenta[c]thiophene-1-carboxylic acid [(2,2-difluoro-ethylcarbamoyl)-methyl]-amide] | ≥ 80
CSCCNC(=O)c1sc(C2=NOC(c3cc(Cl)cc(Cl)c3)(C(F)(F)F)C2)c2c1CCCC2 (stereo not drawn) [Example 65, 3-(5-(3,5-dichloro-phenyl)-5-(trifluoro-methyl)-4,5-dihydro-isoxazol-3-yl)-N-(2-(methylthio)ethyl)-4,5,6,7-tetra-hydrobenzo[c] thiophene-1-carboxamide] | ≥ 80
O=C(N[C@@H]1CCNC1=O)c1sc(C2=NOC(c3cc(Cl)cc(Cl)c3)(C(F)(F)F)C2)c2c1CCCC2 (stereo partly drawn) [Example 32, 3-(5-(3,5-dichlorophenyl)-5-(trifluoromethyl)-4,5-dihydroisoxazol-3-yl)-N—((R)-2-oxopyrrolidin-3-yl)-4,5,6,7-tetrahydrobenzo[c]thiophene-1-carboxamide] | ≥ 80
N#CCNC(=O)CNC(=O)c1sc(C2=NOC(c3cc(Cl)c(Cl)c(Cl)c3)(C(F)(F)F)C2)c2c1CCCC2 (stereo not drawn) [Example 46, N-(2-(cyanomethyl-amino)-2-oxoethyl)-3-(5-(3,4,5-trichloro-phenyl)-5-(trifluoro-methyl)-4,5-dihydro-isoxazol-3-yl)-4,5,6,7-tetrahydrobenzo [c]thiophene-1-carboxamide] | ≥ 80
O=C(CNC(=O)c1sc(C2=NOC(c3cc(Cl)cc(Cl)c3)(C(F)(F)F)C2)c2c1CCC2)NCC(F)(F)F (stereo not drawn) [Example 36, 3-(5-(3,5-dichloro-phenyl)-5-(trifluoro-methyl)-4,5-dihydro-isoxazol-3-yl)-N-(2-oxo-2-(2,2,2-trifluoroethylamino)ethyl)-5,6-dihydro-4H-cyclopenta[c] thiophene-1-carboxamide] | ≥ 80
O=C(NCCC(F)(F)F)c1sc(C2=NOC(c3cc(Cl)cc(Cl)c3)(C(F)(F)F)C2)c2c1CCCC2 (stereo not drawn) [Example 66, 3-(5-(3,5-dichloro-phenyl)-5-(trifluoro-methyl)-4,5-dihydro-isoxazol-3-yl)-N-(3,3,3-trifluoropropyl)-4,5,6,7-tetrahydrobenzo[c] thiophene-1-carboxamide] | ≥ 80
C#CCNC(=O)CNC(=O)c1sc(C2=NOC(c3cc(Cl)c(Cl)c(Cl)c3)(C(F)(F)F)C2)c2c1CCCC2 (stereo not drawn) [Example 47, N-(2-oxo-2-(prop-2-ynylamino)ethyl)-3-(5-(3,4,5-trichlorophenyl)-5-(trifluoromethyl)-4,5-dihydroisoxazol-3-yl)-4,5,6,7-tetrahydro-benzo[c]thiophene-1-carboxamide] | ≥ 80
O=C(NC1CCCC(O)C1)c1sc(C2=NOC(c3cc(Cl)cc(Cl)c3)(C(F)(F)F)C2)c2c1CCCC2 (stereo not drawn) [Example 67, 3-(5-(3,5-dichloro-phenyl)-5-(trifluoro-methyl)-4,5-dihydro-isoxazol-3-yl)-N-(3-hydroxycyclohexyl)-4,5,6,7-tetrahydrobenzo [c]thiophene-1-carboxamide] | ≥ 80
O=C(CNC(=O)c1sc(C2=NOC(c3cc(Cl)c(F)c(Cl)c3)(C(F)(F)F)C2)c2c1CCC2)NCCF (stereo not drawn) [Example 246, 3-[5-(3,5-Dichloro-4-fluoro-phenyl)-5-trifluoromethyl-4,5-dihydro-isoxazol-3-yl]-5,6-dihydro-4H-cyclopenta[c]thiophene-1-carboxylic acid [(2-fluoro-ethylcarbamoyl)-methyl]-amide] | ≥ 80

Reference: patent US8648081B2 (Eli Lilly and Company, priority 2011, dated 2014)
